Reference: patent publication US8338465B2, “Cyclic carboxylic acid rhodanine derivatives for the treatment and prevention of tuberculosis” (priority 2006, dated 2012)

Target: T1, dihydrolipoamide acyltransferase (DlaT) (Mycobacterium tuberculosis, UniProt P9WIS7)
T1 sequence (P9WIS7 1-553): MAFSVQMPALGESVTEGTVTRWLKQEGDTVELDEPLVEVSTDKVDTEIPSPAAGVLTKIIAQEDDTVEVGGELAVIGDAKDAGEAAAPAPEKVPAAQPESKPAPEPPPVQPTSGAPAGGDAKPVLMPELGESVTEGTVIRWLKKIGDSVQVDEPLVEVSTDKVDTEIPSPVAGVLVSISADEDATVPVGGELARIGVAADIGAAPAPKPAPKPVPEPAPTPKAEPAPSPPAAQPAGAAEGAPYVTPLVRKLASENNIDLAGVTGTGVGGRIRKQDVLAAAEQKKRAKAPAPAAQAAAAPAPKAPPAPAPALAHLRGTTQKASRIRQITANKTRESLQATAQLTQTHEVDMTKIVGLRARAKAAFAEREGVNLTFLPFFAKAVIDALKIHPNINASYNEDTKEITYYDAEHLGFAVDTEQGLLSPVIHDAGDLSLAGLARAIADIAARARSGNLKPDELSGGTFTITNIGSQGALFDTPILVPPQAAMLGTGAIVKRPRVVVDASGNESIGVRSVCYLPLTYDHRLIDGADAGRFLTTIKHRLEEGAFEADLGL
Test: DlaT inhibition (Dlat IC50); DTNB peroxidase assay with Lpd, DlaT and AhpD
Type: biochemical
Settings: Dlat IC50 category

Row | SMILES | IC50 [µM]
1 | O=C(O)C(c1ccccc1)N1C(=O)C(=Cc2ccc(-c3ccc(-c4ccccc4)cc3)o2)SC1=S (centres unmarked) [Compound B19] | < 10
2 | O=C(O)CCCCCN1C(=O)C(=Cc2ccc(-c3cc(C(F)(F)F)ccc3Cl)o2)SC1=S [Compound B20] | < 10
3 | COc1ccc(-c2ccc(C=C3SC(=S)N(CCCCCC(=O)O)C3=O)o2)cc1Cl [Compound B21] | 11 to 40
4 | O=C(O)CCCCCN1C(=O)C(=Cc2ccc(-c3cccc(C(F)(F)F)c3)o2)SC1=S [Compound B22] | < 10
5 | O=C(O)CCCCCN1C(=O)C(=Cc2ccc(-c3ccccc3C(F)(F)F)o2)SC1=S [Compound B23] | 11 to 40
6 | O=C(O)CCCCCN1C(=O)C(=Cc2ccc(-c3ccccc3OC(F)(F)F)o2)SC1=S [Compound B24] | < 10
7 | O=C(O)C(c1ccccc1)N1C(=O)C(=Cc2ncc(-c3cccc(C(F)(F)F)c3)s2)SC1=S (centres unmarked) [Compound B25] | < 10
8 | O=C(O)CCN1C(=O)C(=Cc2ccc(-c3ccc(O)cc3)o2)SC1=S [Compound B26] | 41 to 80
9 | O=C(O)CCCCCN1C(=O)C(=Cc2ccc(-c3ccc(O)cc3)o2)SC1=S [Compound B27] | < 10
10 | O=C(O)C(c1ccccc1)N1C(=O)C(=Cc2ccc(-c3ccc(Oc4ccccc4)cc3)o2)SC1=S (centres unmarked) [Compound B28] | 11 to 40
11 | O=C(O)C(c1ccccc1)N1C(=O)C(=Cc2ccc(-c3ccc(O)cc3)o2)SC1=S (centres unmarked) [Compound B29] | 11 to 40
12 | O=C(O)CN1C(=O)C(=Cc2ccc(-c3ccc(Cc4ccccc4)cc3)o2)SC1=S [Compound B30] | < 10
13 | O=C(O)CCN1C(=O)C(=Cc2ccc(-c3ccc(Cc4ccccc4)cc3)o2)SC1=S [Compound B31] | < 10
14 | O=C(O)C(c1ccccc1)N1C(=O)C(=Cc2ccc(-c3ccc(Cc4ccccc4)cc3)o2)SC1=S (centres unmarked) [Compound B32] | < 10
15 | O=C(O)CCCCCN1C(=O)C(=Cc2ccc(-c3ccc(Cc4ccccc4)cc3)o2)SC1=S [Compound B33] | 11 to 40
16 | O=C(O)CCCCCN1C(=O)C(=Cc2ncc(-c3cccc(Cl)c3)o2)SC1=S [Compound B34] | 11 to 40
17 | O=C(O)C(c1ccccc1)N1C(=O)C(=Cc2ncc(-c3cccc(Cl)c3)o2)SC1=S (centres unmarked) [Compound B35] | 11 to 40
18 | O=C(O)[C@@H](c1ccccc1)N1C(=O)C(=Cc2ccc(-c3ccc(Cl)cc3)o2)SC1=S [Compound B36] | < 10
19 | O=C(O)[C@H](c1ccccc1)N1C(=O)C(=Cc2ccc(-c3ccc(Cl)cc3)o2)SC1=S [Compound B37] | < 10
20 | O=C(O)C(c1ccccc1)N1C(=O)C(=Cc2cc(-c3cccc(C(F)(F)F)c3)co2)SC1=S (centres unmarked) [Compound B38] | < 10
21 | O=C(O)CCCCCN1C(=O)C(=Cc2cc(-c3cccc(C(F)(F)F)c3)co2)SC1=S [Compound B39] | 11 to 40
22 | O=C(O)C(Cc1ccccc1)N1C(=O)C(=Cc2ccc(-c3cccc(C(F)(F)F)c3)o2)SC1=S (centres unmarked) [Compound B40] | < 10
23 | O=C(O)C(Cc1ccccc1)N1C(=O)C(=Cc2ccc(-c3ccccc3Cl)o2)SC1=S (centres unmarked) [Compound B41] | < 10
24 | O=C(O)C(Cc1ccccc1)N1C(=O)C(=Cc2ccc(-c3ccc(Cl)cc3)o2)SC1=S (centres unmarked) [Compound B42] | < 10

Row | SMILES | IC50 [µM]
25 | O=C(O)CN1C(=O)C(=Cc2ccc(-c3ccc(Cl)cc3Cl)o2)SC1=S [Compound B43] | < 10
26 | O=C(O)C(c1ccccc1)N1C(=O)C(=Cc2ccc(-c3ccc(Cl)cc3Cl)o2)SC1=S (centres unmarked) [Compound B44] | < 10
27 | O=C(O)C(Cc1ccccc1)N1C(=O)C(=Cc2ccc(-c3ccc(Cl)cc3Cl)o2)SC1=S (centres unmarked) [Compound B45] | < 10
28 | O=C(O)C(c1ccccc1)N1C(=O)C(=Cc2ccc(-c3cc(Cl)ccc3Cl)o2)SC1=S (centres unmarked) [Compound B46] | < 10
29 | O=C(O)C(Cc1ccccc1)N1C(=O)C(=Cc2ccc(-c3cc(Cl)ccc3Cl)o2)SC1=S (centres unmarked) [Compound B47] | < 10
30 | O=C(O)C(c1ccccc1)N1C(=O)C(=Cc2ccc(-c3c(Cl)cccc3Cl)o2)SC1=S (centres unmarked) [Compound B48] | < 10
31 | O=C(O)C(Cc1ccccc1)N1C(=O)C(=Cc2ccc(-c3c(Cl)cccc3Cl)o2)SC1=S (centres unmarked) [Compound B49] | < 10
32 | O=C(O)C(c1ccccc1)N1C(=O)C(=Cc2ccc(-c3cccc(C(F)(F)F)c3)o2)SC1=S (centres unmarked) [Compound B50] | < 10
33 | O=C(O)C(Cc1ccc(O)cc1)N1C(=O)C(=Cc2ccc(-c3ccccc3Cl)o2)SC1=S (centres unmarked) [Compound B51] | < 10
34 | O=C(O)C(Cc1ccc(O)cc1)N1C(=O)C(=Cc2ccc(-c3cccc(C(F)(F)F)c3)o2)SC1=S (centres unmarked) [Compound B52] | < 10
35 | O=C(O)C(Cc1ccc(O)cc1)N1C(=O)C(=Cc2ccc(-c3ccc(Cl)cc3)o2)SC1=S (centres unmarked) [Compound B53] | < 10
36 | O=C(O)C(Cc1ccc(O)c(O)c1)N1C(=O)C(=Cc2ccc(-c3ccccc3Cl)o2)SC1=S (centres unmarked) [Compound B54] | 11 to 40
37 | O=C(O)C(Cc1ccc(O)c(O)c1)N1C(=O)C(=Cc2ccc(-c3cccc(C(F)(F)F)c3)o2)SC1=S (centres unmarked) [Compound B55] | < 10
38 | O=C(O)C(Cc1ccc(O)c(O)c1)N1C(=O)C(=Cc2ccc(-c3ccc(Cl)cc3)o2)SC1=S (centres unmarked) [Compound B56] | 11 to 40
39 | O=C(O)C(Cc1ccccc1)N1C(=O)C(=Cc2ccc(-c3ccc(Cc4ccccc4)cc3)o2)SC1=S (centres unmarked) [Compound B57] | < 10
40 | O=C(O)C(Cc1ccc(O)cc1)N1C(=O)C(=Cc2ccc(-c3ccc(Cc4ccccc4)cc3)o2)SC1=S (centres unmarked) [Compound B58] | < 10
41 | O=C(O)C(Cc1ccc(O)c(O)c1)N1C(=O)C(=Cc2ccc(-c3ccc(Cc4ccccc4)cc3)o2)SC1=S (centres unmarked) [Compound B59] | < 10
42 | O=C(O)CN1C(=O)C(=Cc2ccc(-c3ccc(Cl)cc3)o2)SC1=S [Compound B60] | 11 to 40
43 | O=C(O)CN1C(=O)C(=Cc2ccc(-c3cc(C(F)(F)F)ccc3Cl)o2)SC1=S [Compound B61] | < 10
44 | O=C(O)C(Cc1ccc(O)cc1)N1C(=O)C(=Cc2ccc(-c3cc(Cl)ccc3Cl)o2)SC1=S (centres unmarked) [Compound B62] | < 10
45 | O=C(O)C(Cc1ccc(O)cc1)N1C(=O)C(=Cc2ccc(-c3cc(C(F)(F)F)ccc3Cl)o2)SC1=S (centres unmarked) [Compound B63] | < 10
46 | O=C(O)C(Cc1ccc(O)c(O)c1)N1C(=O)C(=Cc2ccc(-c3cc(Cl)ccc3Cl)o2)SC1=S (centres unmarked) [Compound B64] | < 10
47 | O=C(O)C(Cc1ccc(O)c(O)c1)N1C(=O)C(=Cc2ccc(-c3cc(C(F)(F)F)ccc3Cl)o2)SC1=S (centres unmarked) [Compound B65] | < 10
48 | CC(C)c1ccc(-c2ccc(C=C3SC(=S)N(C(C(=O)O)c4ccccc4)C3=O)o2)cc1 (centres unmarked) [Compound B66] | < 10

Row | SMILES | IC50 [µM]
49 | CC(C)c1ccc(-c2ccc(C=C3SC(=S)N(C(Cc4ccccc4)C(=O)O)C3=O)o2)cc1 (centres unmarked) [Compound B67] | < 10
50 | CC(C)c1ccc(-c2ccc(C=C3SC(=S)N(C(Cc4ccc(O)c(O)c4)C(=O)O)C3=O)o2)cc1 (centres unmarked) [Compound B68] | < 10
51 | O=C(O)CN1C(=O)C(=Cc2ccc(-c3ccc(C(=O)c4ccccc4)cc3)o2)SC1=S [Compound B69] | 11 to 40
52 | CC(C)c1ccc(-c2ccc(C=C3SC(=S)N(CC(=O)O)C3=O)o2)cc1 [Compound B70] | 11 to 40
53 | O=C(O)CN1C(=O)C(=Cc2ccc(-c3ccc(CSc4ccccc4)cc3)o2)SC1=S [Compound B71] | 11 to 40
54 | CC(C)c1cccc(-c2ccc(C=C3SC(=S)N(CC(=O)O)C3=O)o2)c1 [Compound B72] | < 10
55 | O=C(O)CN1C(=O)C(=Cc2ccc(-c3ccc(C4CCCCC4)cc3)o2)SC1=S [Compound B73] | < 10
56 | CC(C)(C)c1ccc(-c2ccc(C=C3SC(=S)N(CC(=O)O)C3=O)o2)cc1 [Compound B74] | < 10
57 | CC(C)c1cccc(-c2ccc(C=C3SC(=S)N(C(Cc4ccccc4)C(=O)O)C3=O)o2)c1 (centres unmarked) [Compound B75] | < 10
58 | O=C(O)C(Cc1ccccc1)N1C(=O)C(=Cc2ccc(-c3ccc(CSc4ccccc4)cc3)o2)SC1=S (centres unmarked) [Compound B76] | < 10
59 | CC(C)Cc1ccc(-c2ccc(C=C3SC(=S)N(CC(=O)O)C3=O)o2)cc1 [Compound B77] | < 10
60 | CC(C)Cc1ccc(-c2ccc(C=C3SC(=S)N(C(C(=O)O)c4ccccc4)C3=O)o2)cc1 (centres unmarked) [Compound B78] | < 10
61 | O=C(O)CN1C(=O)C(=Cc2ccc(-c3ccc(Cc4ccc(Cl)cc4)cc3)o2)SC1=S [Compound B79] | < 10
62 | O=C(O)CN1C(=O)C(=Cc2ccc(-c3ccc(C4CCCC4)cc3)o2)SC1=S [Compound B81] | < 10
63 | C=C(c1ccccc1)c1ccc(-c2ccc(C=C3SC(=S)N(CC(=O)O)C3=O)o2)cc1 [Compound B82] | < 10
64 | CN(C)c1ccc(-c2ccc(C=C3SC(=S)N(CC(=O)O)C3=O)o2)cc1 [Compound B84] | 11 to 40
65 | O=C(O)CN1C(=O)C(=Cc2ccc(-c3cccc(Cl)c3Cl)o2)SC1=S [Compound B85] | < 10
66 | CN(C)c1ccc(-c2ccc(C=C3SC(=S)N(CC(=O)O)C3=O)o2)cc1 [Compound B86] | 41 to 80
67 | Cc1ccccc1-c1ccc(C=C2SC(=S)N(CC(=O)O)C2=O)o1 [Compound B87] | 41 to 80
68 | COc1ccccc1-c1ccc(C=C2SC(=S)N(CC(=O)O)C2=O)o1 [Compound B88] | 11 to 40
69 | N#Cc1c(F)cccc1-c1ccc(C=C2SC(=S)N(C(C(=O)O)c3ccccc3)C2=O)o1 (centres unmarked) [Compound B89] | 11 to 40
70 | O=C(O)CCCN1C(=O)C(=Cc2ccc(-c3ccccc3Cl)o2)SC1=S [Compound B90] | < 10
71 | O=C(O)CCCN1C(=O)C(=Cc2ccc(-c3cccc(C(F)(F)F)c3)o2)SC1=S [Compound B91] | < 10
